From patent US8722745B2, “Sulfur-containing compound, method of preparation and pharmaceutical uses thereof” (National Sun Yat-Sen University, priority 2007, dated 2014)

What was measured:
[1] = tested on: neointimal proliferation of the carotid artery; experiment: Atherosclerosis model in rat, balloon-induced angioplasty of carotid artery; assay type: in vivo
Experimental: The operation was performed according to the references of Berger et al (Atherosclerosis 175:229-234, 2004) and Chen et al (Naunyn Schmiedebergs Arch Pharmacol 368:127-133, 2003). The animals were anesthetized with 2.5% isoflurane (mixed air and oxygen of 1:1) with a 2F probe balloon catheter. The catheter was pre-filled with saline solution and positioned from the external carotid artery of the right neck into the right common carotid artery. When the catheter entered about 1.5 cm of the right common carotid artery, the balloon was inflated and rubbed forward and backward three times. Then, the catheter was removed and the external carotid artery was ligated and the incision was sutured. […] The samples were observed under an optical microscopy and photoed. The thickness of neointimal proliferation was determined. The right side of each rat was taken as the experiment group and the left side was as the control group.
In the experiment group, the compound represented by formula 3 was administered.

[2] = tested on: inducible nitric oxide synthase; experiment: Protein expression of inducible nitric oxide synthase in LPS-stimulated RAW 264.7 macrophages (Western blot); assay type: cell-based, mouse
Experimental: (§1) A mouse macrophage cell line, RAW 264.7, purchased from the American Type Culture Collection (ATCC , No TIB-71) was chosen in the in vitro model. The cells were cultured in DMEM (Dulcbecco/s Modified Eagle medium) containing 10% fetal bovine serum (FBS) and penicillin G (100 U/mL) and streptomycin (100 μg/mL) at 37° C. and 5% CO2. When reaching 80% confluence, the cells were subcultured with trypsin. The cells were subjected to an anti-inflammation assay after subcultured for 36 hours. 3×10^6 RAW264.7 cells were cultured in a 10-cm culture dish and administered with lipopolysaccharide (LPS, 0.01 μg/mL; Sigma L2654). After 16 hours, the cells were collected. […]
(§2) The collected RAW264.7 cells were dissolved with 200 μL of 4° C. lysis buffer (50 mM Tris [pH 7.5], 150 mM NaCl, 1% TritonX-100, 0.1 mM EDTA, 0.1 mM EGTA, 10 μg PMSF, 1 μg/mL aprotinin, 20 mM NaF, and 0.2 mM Na3VO4). […] The supernatant was assayed with Bio-Rad DC protein assay kit (Bio-Rad Laboratories, Hercules, Calif., USA) and the absorbance was read with an ELISA reader (Thermo Electron Corporation, USA) for estimating the protein contents. […] After washed with TTBS for three times, an enhanced chemiluminescence detection kit was used for reading with the PVDF membrane and exposed with an X-ray film (Kodak X-OMAT LS, Kodak, Rochester, N.Y., USA) for detecting the protein expression. […]

[3] = tested on: cyclooxygenase-2; experiment: Protein expression of cyclooxygenase-2 in LPS-stimulated RAW 264.7 macrophages (Western blot); assay type: cell-based, mouse
Experimental: as §1, §2

[4] = tested on: β-actin; experiment: Protein expression of β-actin (internal control) in LPS-stimulated RAW 264.7 macrophages; assay type: cell-based, mouse; details: 50 μM compound
Experimental: as §1, §2

[5] = tested on: multiple sclerosis (EAE); experiment: Multiple sclerosis (EAE) animal model, neural function score; assay type: in vivo
Experimental: Female Lewis rats weighted between 280 to 300 g were used in the multiple sclerosis (MS, also called Encephalomyelitis; EAE) model (Boulerne et al, J Neurosci. 2002; 22:123-32, 2004). The animals were anesthetized with 2.5% isoflurane, and 50 μL of Complete Freund's Adjuvant (Sigma) containing 1 mg inactivated Mycobacterium tuberculosis H37Ra and 50 μg guinea pig myelin basic protein (MBP) was subcutaneous injected from the posterior paw for 100% immunizing In the control group, the rats were injected with Freund's complete adjuvant containing inactivated Mycobacterium tuberculosis H37Ra and without guinea pig myelin basic protein. The ill was observed on day 11 to 12 after immunization, and reached the peak on day 14 to 15.
The neural function was assessed on day 15. The scores represents: 0: no clinical symptom; 1: function loss in the tail; 2: partial paralysis in the posterior limbs; 3: complete paralysis in the posterior limbs; 4: paralysis in the four limbs; 5: complete paralysis in the whole body; 6: death (Liu et al. J Neuroimmunol. 2003; 139:27-35, 1998).
The rats were divided into four groups, and each group containing four animals: • Control group: Rats were subcutaneous injected from the posterior paw with Freund's complete adjuvant containing inactivated Mycobacterium tuberculosis H37Ra and without guinea pig myelin basic protein. 20 μL of normal saline was administered through the intrathecal catheter twice a day for five days from day 7. • Multiple sclerosis group: Rats were subcutaneous injected from the posterior paw with Freund's complete adjuvant containing inactivated Mycobacterium tuberculosis H37Ra and guinea pig myelin basic protein. 20 μL of normal saline was administered through the intrathecal catheter twice a day for five days from day 7. • Multiple sclerosis with treatment group: Rats were subcutaneous injected from the posterior paw with Freund's complete adjuvant containing inactivated Mycobacterium tuberculosis H37Ra and guinea pig myelin basic protein. […]

[6] = tested on: thermal hyperalgesia after sciatic nerve chronic constriction injury; experiment: Neuropathic pain model, sciatic nerve chronic constriction injury, thermal hyperalgesia; assay type: in vivo, rat
Experimental: The operation was performed according to the description of Wen et al, Brain Res 963:1-7, 2003. The dura mater of male Wistar rats was opened near the foramen magnum and planted with an 8.5-cm PE tube (outer diameter: 0.014 inches, inner diameter: 0.008 inches). The drugs worked near the lumbar, and the end of injection was fixed on the head. Animals those had deficient in motor or blood in the intrathecal catheter were abandoned.
The model was established similar to the sciatic nerve chronic constriction injury (CCI) established by Bennett and Xie (Pain 33:87-107, 1988). 4-O cat cut line was used to tie four nodes on the sciatic nerve. After one week, the behavior of thermal hyperalgesia was stimulated. The behavior of thermal hyperalgesia was assayed similar to the method established by Hargreaves et al (Pain 32:77-88, 1988) and recorded with an analgesiometer (IITC Inc., Woodland Hills, Calif., USA) for assessing the effect of the compound represented by formula 3 on neuropathic pain relief.
MPE(%)=(latency after drug administered−basal latency)/(30 seconds−basal latency)×100%
If a higher MPE was obtained, the effect of pain relief was better, and the maximum value of MPE was 100.

## CC(=O)CCS(=O)(=O)CCO [formula 3]
[1]; administered once a day
  neointimal proliferation (preliminary result): significantly improved
[1]; hypodermic injection 3 mg/kg a day from day 10 to 24 after operation
  atherosclerosis, numeralized intima/media: improves atherosclerosis significantly
[1]; hypodermic injection 3 mg/kg a day from day 10 to 24 after operation, slices on day 24
  neointimal proliferation stimulated by balloon-induced angioplasty: improves the neointimal proliferation
[2]; 10 to 30 μM compound, LPS 0.01 μg/mL
  inhibition of inducible nitric oxide synthase of macrophages: significantly inhibits
[2]; RAW 264.7 macrophages stimulated by LPS 0.01 μg/mL, 16 hours, protein expression, read-out: 50% inhibition concentration (IC50), inducible nitric oxide synthase
  IC50: 3.64 ± 0.28 µM
[3]; 5 to 30 μM compound, LPS 0.01 μg/mL
  inhibition of cyclooxygenase-2 of macrophages: significantly inhibits
[3]; RAW 264.7 macrophages stimulated by LPS 0.01 μg/mL, 16 hours, protein expression
  IC50: 32.1 ± 8.1 µM
[4]
  effect on protein expression of β-actin: inhibits the protein expression of β-actin
[5]; 10 μg/20 μL intrathecal twice a day for five days from day 7, assessed on day 15, female Lewis rats
  neural function score (0-6), multiple sclerosis with treatment group: 0.5±0.3
[5]; administered through the intrathecal catheter
  progress of multiple sclerosis: significantly represses the progress of multiple sclerosis
[5]; normal rats, 10 μg/20 μL intrathecal twice a day for five days from day 7
  neural function score (0-6), normal rats with treatment group: 0
[6]; intrathecal injection, CCI rats, paw withdrawal latency
  50% effective dose (ED50) calculated from MPE: 0.75 ± 0.05 µg
[6]; intrathecal injections of 0.1, 0.5, 1, or 5 μg
  thermal hyperalgesia inhibition: significant effect on thermal hyperalgesia inhibition
